From US12071453B2, “Neuroactive steroids, compositions, and uses thereof” (Sage Therapeutics, Inc., priority 2013, dated 2024)

Tests used:
[1] = target: T1, GABAA receptors composed of the α1β2γ2 subunits (GABRA1/GABRB2/GABRG2) (Homo sapiens, UniProt P14867+P47870); assay: Two Electrode Voltage Clamp (TEVC), GABA receptor potentiation in Xenopus laevis oocytes, α1β2γ2; type: cell-based; settings: 10 μM compound, 10 μM GABA, read-out: GABA (α1β2γ2) % efficacy at 10 μM
T1 construct: expressed in transfected cells; host or cells: Xenopus laevis oocytes, injected (ratio 1:1:1)
T1 sequence (P14867 28-456): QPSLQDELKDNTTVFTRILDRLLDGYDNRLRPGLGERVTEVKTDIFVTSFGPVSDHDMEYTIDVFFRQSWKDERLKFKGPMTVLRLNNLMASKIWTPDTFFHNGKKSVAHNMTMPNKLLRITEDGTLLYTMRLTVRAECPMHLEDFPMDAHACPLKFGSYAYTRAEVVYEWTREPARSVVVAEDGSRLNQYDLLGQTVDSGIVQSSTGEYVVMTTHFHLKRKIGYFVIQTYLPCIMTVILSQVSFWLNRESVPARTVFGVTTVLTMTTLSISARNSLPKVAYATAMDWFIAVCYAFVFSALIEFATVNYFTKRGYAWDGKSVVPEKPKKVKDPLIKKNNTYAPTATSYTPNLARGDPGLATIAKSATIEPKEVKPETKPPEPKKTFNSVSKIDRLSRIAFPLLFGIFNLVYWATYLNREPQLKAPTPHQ
T1 sequence (P47870 26-512): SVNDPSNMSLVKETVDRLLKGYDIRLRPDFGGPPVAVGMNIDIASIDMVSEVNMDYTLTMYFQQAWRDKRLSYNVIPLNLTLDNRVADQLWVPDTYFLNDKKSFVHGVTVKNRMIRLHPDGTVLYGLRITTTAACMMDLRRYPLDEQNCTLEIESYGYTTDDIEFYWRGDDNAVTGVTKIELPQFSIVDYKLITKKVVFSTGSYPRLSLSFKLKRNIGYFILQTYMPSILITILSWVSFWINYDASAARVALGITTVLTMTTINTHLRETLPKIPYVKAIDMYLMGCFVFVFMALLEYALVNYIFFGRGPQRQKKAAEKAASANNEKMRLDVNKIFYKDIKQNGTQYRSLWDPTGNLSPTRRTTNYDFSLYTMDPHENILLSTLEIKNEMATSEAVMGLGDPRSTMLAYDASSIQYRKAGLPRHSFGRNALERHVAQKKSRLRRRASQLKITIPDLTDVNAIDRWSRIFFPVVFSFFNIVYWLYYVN
T1 sequence (P18507 40-475 partner): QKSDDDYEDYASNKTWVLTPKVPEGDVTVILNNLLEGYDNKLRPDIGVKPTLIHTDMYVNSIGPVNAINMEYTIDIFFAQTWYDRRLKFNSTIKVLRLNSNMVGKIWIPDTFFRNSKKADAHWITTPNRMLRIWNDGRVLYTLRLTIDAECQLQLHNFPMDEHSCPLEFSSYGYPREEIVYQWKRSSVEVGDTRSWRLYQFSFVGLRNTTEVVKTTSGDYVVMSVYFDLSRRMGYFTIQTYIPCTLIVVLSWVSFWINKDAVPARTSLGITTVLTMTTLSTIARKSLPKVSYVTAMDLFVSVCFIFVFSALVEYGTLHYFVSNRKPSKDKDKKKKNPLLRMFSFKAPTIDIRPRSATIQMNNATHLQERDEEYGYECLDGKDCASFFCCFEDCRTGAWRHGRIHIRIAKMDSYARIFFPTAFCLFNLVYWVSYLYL
Experimental: The Two Electrode Voltage Clamp (TEVC) technique was used to investigate the effects of compounds at a concentration of 10 μM on GABAA receptors composed of the α1β2γ2 or α4β3δ subunits expressed in oocytes from the Xenopus laevis. GABA-evoked currents were recorded from oocytes that expressed the GABA receptors and the modulatory effects of the test items on these currents were investigated.
Ovaries were harvested from Xenopus laevis females that had been deeply anesthetized by cooling at 4° C. and immersion in Tricaine methanesulfonate (MS-222 at a concentration of 150 mg/L) in sodium bicarbonate (300 mg/L). Once anesthetized the animal was decapitated and pithed following the rules of animal rights from the Geneva canton. A small piece of ovary was isolated for immediate preparation while the remaining part was placed at 4° C. in a sterile Barth solution containing in mM NaCl 88, KCl 1, NaHCO3 2.4, HEPES 10, MgSO4·7H2O 0.82, Ca(NO3)2·4H2O 0.33, CaCl2·6H2O 0.41, at pH 7.4, and supplemented with 20 μg/ml of kanamycin, 100 unit/ml penicillin and 100 μg/ml streptomycin. All recordings were performed at 18° C. and cells were super-fused with medium containing in mM: NaCl 82.5, KCl 2.5, HEPES 5, CaCl2·2H2O, ·6H2O 1, pH 7.4.
Plasmids containing the RNAs of the human GABRA1/GABRB2/GABRG2 and GABRA4/GABRB3/GABRD genes were injected into oocytes using a proprietary automated injection device (Hogg el al., J. Neurosci. Methods, (2008) 169: 65-75). These genes encode for the α1β2γ2 and α4β3δ GABAA subunits respectively. Receptor expression was assessed using electrophysiology at least two days later. The ratio of RNA injection for α1β2γ2 was 1:1:1 and for α4β3δ was 5:1:5. Electrophysiological recordings were made using an automated process equipped with standard TEVC and data were captured and analyzed using a proprietary data acquisition and analysis software running under Matlab (Mathworks Inc.). The membrane potential of the oocytes was maintained at −80 mV throughout the experiments. To explore the effects of proprietary compounds, currents were evoked by applying 10 μM (α1β2γ2) or 3 μM (α4β3δ) GABA for 30 s. These concentrations approximated the EC50 concentration of GABA at each receptor subtype. Oocytes were then re-exposed to GABA again for 30 s. 15 s after beginning the GABA application, test article was co-applied at a concentration of 10 μM for 15 s. Potentiation of the peak current was assessed. Data was filtered at 10 Hz, captured at 100 Hz and analyzed using proprietary data acquisition and analysis software running under Matlab (Mathworks Inc.). For statistical analysis values were computed either with Excel (Microsoft) or Matlab (mathworks Inc.). To obtain mean measurements with standard deviations, all experiments were carried out using at least three cells.

[2] = target: [35S]-TBPS binding in rat brain cortical membranes; assay: Steroid inhibition of [35S]-TBPS binding, rat brain cortical membranes; settings: 3 nM [35S]-TBPS, in the presence of 5 μM GABA, read-out: 35S-TBPS Radioligand Displacement (IC50)
Experimental: TBPS binding assays using rat brain cortical membranes in the presence of 5 μM GABA has been described (Gee et al, J. Pharmacol. Exp. Ther. 1987, 241, 346-353; Hawkinson et al, Mol. Pharmacol. 1994, 46, 977-985; Lewin, A. H et al., Mol. Pharmacol. 1989, 35, 189-194).
Briefly, cortices are rapidly removed following decapitation of carbon dioxide-anesthetized Sprague-Dawley rats (200-250 g). The cortices are homogenized in 10 volumes of ice-cold 0.32 M sucrose using a glass/teflon homogenizer and centrifuged at 1500×g for 10 min at 4° C. The resultant supernatants are centrifuged at 10,000×g for 20 min at 4° C. to obtain the P2 pellets. The P2 pellets are resuspended in 200 mM NaCl/50 mM Na—K phosphate pH 7.4 buffer and centrifuged at 10,000×g for 10 min at 4° C. This washing procedure is repeated twice and the pellets are resuspended in 10 volumes of buffer. Aliquots (100 μL) of the membrane suspensions are incubated with 3 nM [^35S]-TBPS and 5 μL aliquots of test drug dissolved in dimethyl sulfoxide (DMSO) (final 0.5%) in the presence of 5 μM GABA. The incubation is brought to a final volume of 1.0 mL with buffer. Nonspecific binding is determined in the presence of 2 μM unlabeled TBPS and ranged from 15 to 25%. Following a 90 min incubation at room temp, the assays are terminated by filtration through glass fiber filters (Schleicher and Schuell No. 32) using a cell harvester (Brandel) and rinsed three times with ice-cold buffer. Filter bound radioactivity is measured by liquid scintillation spectrometry. Non-linear curve fitting of the overall data for each drug averaged for each concentration is done using Prism (GraphPad). […] The concentration of test compound producing 50% inhibition (IC50) of specific binding and the maximal extent of inhibition (Imax) are determined for the individual experiments with the same model used for the overall data and then the mean±SEM.s of the individual experiments are calculated.
Various compounds are or can be screened to determine their potential as modulators of [^35S]-TBPS binding in vitro. These assays are or can be performed in accordance with the above discussed procedures.

SMILES	Emax at 10 µM [1]	IC50 [2]
COC[C@]12CC[C@@](C)(O)C[C@H]1CC[C@H]1[C@@H]3CC[C@H](C(=O)Cn4nccn4)[C@@]3(C)CC[C@@H]12 [Compound 31]	500 to 1000%	10 to 50 nM
COC[C@]12CC[C@@](C)(O)C[C@@H]1CC[C@H]1[C@@H]3CC[C@H](C(=O)Cn4ncc5ncccc54)[C@@]3(C)CC[C@@H]12 [Compound 38]	500 to 1000%	50 to 100 nM
COC[C@]12CC[C@@](C)(O)C[C@@H]1CC[C@H]1[C@@H]3CC[C@H](C(=O)Cn4nnc5ccccc54)[C@@]3(C)CC[C@@H]12 [Compound 39]	500 to 1000%	10 to 50 nM
COC[C@]12CC[C@@](C)(O)C[C@@H]1CC[C@H]1[C@@H]3CC[C@H](C(=O)Cn4nnc5ccc(F)cc54)[C@@]3(C)CC[C@@H]12 [Compound 41]	1000 to 1500%	10 to 50 nM
COC[C@]12CC[C@@](C)(O)C[C@@H]1CC[C@H]1[C@@H]3CC[C@H](C(=O)Cn4nnc5cc(F)ccc54)[C@@]3(C)CC[C@@H]12 [Compound 42]	500 to 1000%	10 to 50 nM
COC[C@]12CC[C@@](C)(O)C[C@@H]1CC[C@H]1[C@@H]3CC[C@H](C(=O)Cn4cc5ccncc5n4)[C@@]3(C)CC[C@@H]12 [Compound 44]	1000 to 1500%	10 to 50 nM
COC[C@]12CC[C@@](C)(O)C[C@@H]1CC[C@H]1[C@@H]3CC[C@H](C(=O)Cn4cnc5ccccc54)[C@@]3(C)CC[C@@H]12 [Compound 46]	1000 to 1500%	50 to 100 nM
COC[C@]12CC[C@@](C)(O)C[C@@H]1CC[C@H]1[C@@H]3CC[C@H](C(=O)Cn4nc5cccc(F)c5n4)[C@@]3(C)CC[C@@H]12 [Compound 49]	500 to 1000%	10 to 50 nM
COC[C@]12CC[C@@](C)(O)C[C@@H]1CC[C@H]1[C@@H]3CC[C@H](C(=O)Cn4nc5ccc(OC)cc5n4)[C@@]3(C)CC[C@@H]12 [Compound 50]	500 to 1000%	10 to 50 nM
COC[C@]12CC[C@@](C)(O)C[C@@H]1CC[C@H]1[C@@H]3CC[C@H](C(=O)Cn4nnc5c(F)c(F)ccc54)[C@@]3(C)CC[C@@H]12 [Compound 53]	50 to 500%	50 to 100 nM
COC[C@]12CC[C@@](C)(O)C[C@@H]1CC[C@H]1[C@@H]3CC[C@H](C(=O)Cn4nnc5c(F)cc(F)cc54)[C@@]3(C)CC[C@@H]12 [Compound 56]	50 to 500%	50 to 100 nM
COC[C@]12CC[C@@](C)(O)C[C@@H]1CC[C@H]1[C@@H]3CC[C@H](C(=O)Cn4nnc5c(Cl)cccc54)[C@@]3(C)CC[C@@H]12 [Compound 60]	50 to 500%	10 to 50 nM
COC[C@]12CC[C@@](C)(O)C[C@@H]1CC[C@H]1[C@@H]3CC[C@H](C(=O)Cn4nc5cccc(Cl)c5n4)[C@@]3(C)CC[C@@H]12 [Compound 61]	500 to 1000%	< 10 nM
COC[C@]12CC[C@@](C)(O)C[C@@H]1CC[C@H]1[C@@H]3CC[C@H](C(=O)Cn4nnc5c(OC)c(OC)ccc54)[C@@]3(C)CC[C@@H]12 [Compound 63]	500 to 1000%	10 to 50 nM
COC[C@]12CC[C@@](C)(O)C[C@@H]1CC[C@H]1[C@@H]3CC[C@H](C(=O)Cn4nc5cc(OC)cc(OC)c5n4)[C@@]3(C)CC[C@@H]12 [Compound 65]	500 to 1000%	< 10 nM
COC[C@]12CC[C@@](C)(O)C[C@H]1CC[C@H]1[C@@H]3CC[C@H](C(=O)Cn4nc5ccc(F)cc5n4)[C@@]3(C)CC[C@@H]12 [Compound 73]	500 to 1000%	< 10 nM
COC[C@]12CC[C@@](C)(O)C[C@H]1CC[C@H]1[C@@H]3CC[C@H](C(=O)Cn4nnc5ccc(F)cc54)[C@@]3(C)CC[C@@H]12 [Compound 74]	500 to 1000%	< 10 nM
COC[C@]12CC[C@@](C)(O)C[C@H]1CC[C@H]1[C@@H]3CC[C@H](C(=O)Cn4nnc5cc(F)ccc54)[C@@]3(C)CC[C@@H]12 [Compound 75]	500 to 1000%	10 to 50 nM
COC[C@]12CC[C@@](C)(O)C[C@H]1CC[C@H]1[C@@H]3CC[C@H](C(=O)Cn4nnc5ccc(F)c(F)c54)[C@@]3(C)CC[C@@H]12 [Compound 77]	1000 to 1500%	< 10 nM
COC[C@]12CC[C@@](C)(O)C[C@H]1CC[C@H]1[C@@H]3CC[C@H](C(=O)Cn4cnc5ccccc54)[C@@]3(C)CC[C@@H]12 [Compound 80]	500 to 1000%	10 to 50 nM
COC[C@]12CC[C@@](C)(O)C[C@H]1CC[C@H]1[C@@H]3CC[C@H](C(=O)Cn4nnc5cccc(F)c54)[C@@]3(C)CC[C@@H]12 [Compound 81]	500 to 1000%	10 to 50 nM
COC[C@]12CC[C@@](C)(O)C[C@H]1CC[C@H]1[C@@H]3CC[C@H](C(=O)Cn4nc5cccc(F)c5n4)[C@@]3(C)CC[C@@H]12 [Compound 83]	1000 to 1500%	< 10 nM
COC[C@]12CC[C@@](C)(O)C[C@@H]1CC[C@H]1[C@@H]3CC[C@H](C(=O)Cn4nc5cc(F)c(F)cc5n4)[C@@]3(C)CC[C@@H]12 [Compound 97]	500 to 1000%	10 to 50 nM
COC[C@]12CC[C@@](C)(O)C[C@@H]1CC[C@H]1[C@@H]3CC[C@H](C(=O)Cn4nc5cc(Cl)cnc5n4)[C@@]3(C)CC[C@@H]12 [Compound 99]	1000 to 1500%	10 to 50 nM
COC[C@]12CC[C@@](C)(O)C[C@@H]1CC[C@H]1[C@@H]3CC[C@H](C(=O)Cn4nnc5cc(Cl)cnc54)[C@@]3(C)CC[C@@H]12 [Compound 100]	500 to 1000%	100 to 500 nM
COC[C@]12CC[C@@](C)(O)C[C@@H]1CC[C@H]1[C@@H]3CC[C@H](C(=O)Cn4nnc5ncc(Cl)cc54)[C@@]3(C)CC[C@@H]12 [Compound 101]	500 to 1000%	10 to 50 nM
COC[C@]12CC[C@@](C)(O)C[C@@H]1CC[C@H]1[C@@H]3CC[C@H](C(=O)Cn4cc5nccnc5n4)[C@@]3(C)CC[C@@H]12 [Compound 103]	1000 to 1500%	> 500 nM
COC[C@]12CC[C@@](C)(O)C[C@@H]1CC[C@H]1[C@@H]3CC[C@H](C(=O)Cn4ncc5cc(F)ccc54)[C@@]3(C)CC[C@@H]12 [Compound 107]	500 to 1000%	> 500 nM
COC[C@]12CC[C@@](C)(O)C[C@@H]1CC[C@H]1[C@@H]3CC[C@H](C(=O)Cn4ncc5ccc(F)cc54)[C@@]3(C)CC[C@@H]12 [Compound 110]	500 to 1000%	50 to 100 nM
